Results reported in patent US20230081426A1, “COMPOUNDS AND METHODS FOR KRAS MODULATION AND INDICATIONS THEREFOR” (Plexxikon Inc., priority 2020, published 2023).

Tests used:
[1] = molecular target: T1, G12D-mutant human KRAS (amino acid residues 1-188) (Homo sapiens, UniProt P01116, G12D); assay: KRAS Binding Disruption Assay (AlphaScreen; biotinylated KRpep-2d analogue or RAF1-RBD), G12D; details: KRAS G12D; geometric mean; read-out: KRAS GMean IC50 (uM) MUTATION: G12D
T1 construct: G12D or G12C-mutant human KRAS (amino acid residues 1-188) with FLAG tag; made in house; host or cells: E. coli
In short: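 Mutant KRAS (5-20 nM) incubated 1 h at 25° C with test compound and 5-20 nM biotinylated KRpep-2d analogue or RAF1-RBD in 20 mM HEPES pH 7.5, 100 mM NaCl, 5 mM MgCl2, 0.01% Tween-20, 0.01% BSA.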

[2] = molecular target: T2, G12V-mutant human KRAS (amino acid residues 1-188) (Homo sapiens, UniProt P01116, G12V); assay: KRAS Binding Competition Assay (AlphaScreen; biotinylated KRpep-2d analogue), G12V; details: geometric mean, read-out: KRAS GMean IC50 (uM) MUTATION: G12V
T2 construct: G12V-mutant human KRAS (amino acid residues 1-188) with FLAG tag was purified from E. coli; made in house; host or cells: E. coli

## CN1CCC[C@H]1COc1nc(N2C[C@H]3CC[C@@H](C2)N3C(=O)CCn2ccnc2)c2ccc(-c3cc(O)cc4ccccc34)cc2n1 [P-0382, 1-((1R,5S)-3-(7-(3-hydroxynaphthalen-1-yl)-2-(((S)-1-methylpyrrolidin-2-yl)methoxy)quinazolin-4-yl)-3,8-diazabicyclo[3.2.1]octan-8-yl)-3-(1H-imidazol-1-yl)propan-1-one]
[1]
  IC50: 0.0001 to 10 µM
[2]
  IC50: 0.0001 to 10 µM

## OCC(O)c1nc(N2C[C@H]3CC[C@@H](C2)N3)c2ccc(-c3cc(O)cc4ccccc34)c(F)c2n1 (stereo partly drawn) [P-0459, 1-(4-((1R,5S)-3,8-diazabicyclo[3.2.1]octan-3-yl)-8-fluoro-7-(3-hydroxynaphthalen-1-yl)quinazolin-2-yl)ethane-1,2-diol]
[1]
  IC50: 0.0001 to 10 µM
[2]
  IC50: 0.0001 to 10 µM

## CCc1cccc2[nH]cc(-c3ccc4c(N5C[C@H]6CC[C@@H](C5)N6)nc(OC[C@@]56CCCN5C[C@H](F)C6)nc4c3F)c12 [P-0511, 4-((1R,5S)-3,8-diazabicyclo[3.2.1]octan-3-yl)-7-(4-ethyl-1H-indol-3-yl)-8-fluoro-2-(((2R,7aS)-2-fluorotetrahydro-1H-pyrrolizin-7a(5H)-yl)methoxy)quinazoline]
[1]
  IC50: 0.0001 to 10 µM
[2]
  IC50: 0.0001 to 10 µM

## Fc1cc2c(N3C[C@H]4CC[C@@H](C3)N4)nc(OCC34CCCN3CCC4)nc2c(F)c1-c1c[nH]c2cccc(F)c12 [P-0448, 4-((1R,5S)-3,8-diazabicyclo[3.2.1]octan-3-yl)-6,8-difluoro-7-(4-fluoro-1H-indol-3-yl)-2-((tetrahydro-1H-pyrrolizin-7a(5H)-yl)methoxy)quinazoline]
[1]
  IC50: 0.0001 to 10 µM
[2]
  IC50: 10 to 100 µM

## CN1CCc2ccc(Oc3nc(N4[C@@H]5CC[C@H]4CNC5)c4ccc(-c5cc(O)cc6ccccc56)cc4n3)cc2C1 [P-0237, 4-(4-((1R,5S)-3,8-diazabicyclo[3.2.1]octan-8-yl)-2-((2-methyl-1,2,3,4-tetrahydroisoquinolin-7-yl)oxy)quinazolin-7-yl)naphthalen-2-ol]
[1]
  IC50: 10 to 100 µM
[2]
  IC50: 10 to 100 µM

## O=C([C@H]1CCNC1)N1[C@@H]2CC[C@H]1CN(c1nc(OCC34CCCN3CCC4)nc3cc(-c4cc(O)cc5ccccc45)ccc13)C2 [P-0112, ((1R,5S)-3-(7-(3-hydroxynaphthalen-1-yl)-2-((tetrahydro-1H-pyrrolizin-7a(5H)-yl)methoxy)quinazolin-4-yl)-3,8-diazabicyclo[3.2.1]octan-8-yl)((S)-pyrrolidin-3-yl)methanone]
[1]
  IC50: 0.0001 to 10 µM
[2]
  IC50: 0.0001 to 10 µM

## CN1CCC[C@H]1COc1nc(N2C[C@H]3CC[C@@H](C2)N3)c2cc(F)c(-c3c[nH]c4ccccc34)c(F)c2n1 [P-0308, 4-((1R,5S)-3,8-diazabicyclo[3.2.1]octan-3-yl)-6,8-difluoro-7-(1H-indol-3-yl)-2-(((S)-1-methylpyrrolidin-2-yl)methoxy)quinazoline]
[1]
  IC50: 0.0001 to 10 µM
[2]
  IC50: 10 to 100 µM

## CN1CCC[C@H]1COc1nc(N2C[C@H]3CC[C@@H](C2)N3C(=O)CO)c2ccc(-c3cc(O)cc4ccccc34)c(F)c2n1 [P-0104, 1-((1R,5S)-3-(8-fluoro-7-(3-hydroxynaphthalen-1-yl)-2-(((S)-1-methylpyrrolidin-2-yl)methoxy)quinazolin-4-yl)-3,8-diazabicyclo[3.2.1]octan-8-yl)-2-hydroxyethan-1-one]
[1]
  IC50: 0.0001 to 10 µM
[2]
  IC50: 0.0001 to 10 µM

## CN(C)c1ccc(CCc2nc(N3C[C@H]4CC[C@@H](C3)N4)c3ccc(-c4cc(O)cc5ccccc45)cc3n2)cc1 [P-0242, 4-(4-((1R,5S)-3,8-diazabicyclo[3.2.1]octan-3-yl)-2-(4-(dimethylamino)phenethyl)quinazo-lin-7-yl)naphthalen-2-ol]
[1]
  IC50: 0.0001 to 10 µM
[2]
  IC50: 0.0001 to 10 µM

## CN(C)C(C)(C)CNc1nc(N2C[C@H]3CC[C@@H](C2)N3)c2ccc(-c3cc(O)cc4ccccc34)c(F)c2n1 [P-0630, 4-(4-((1R,5S)-3,8-diazabicyclo[3.2.1]octan-3-yl)-2-((2-(dimethylamino)-2-methylpropyl)amino)-8-fluoroquinazolin-7-yl)naphthalen-2-ol]
[1]
  IC50: 0.0001 to 10 µM
[2]
  IC50: 10 to 100 µM

## CN1CCC[C@H]1COc1nc(N2[C@@H]3CC[C@H]2CN(c2cnccn2)C3)c2ccc(-c3cc(O)cc4ccccc34)cc2n1 [P-0268, 4-(2-(((S)-1-methylpyrrolidin-2-yl)methoxy)-4-((1R,5S)-3-(pyrazin-2-yl)-3,8-diazabicyclo[3.2.1]octan-8-yl)quinazolin-7-yl)naphthalen-2-ol]
[1]
  IC50: 10 to 100 µM
[2]
  IC50: 10 to 100 µM

## O=C(CN1[C@@H]2CC[C@H]1CN(c1nc(OCC34CCCN3CCC4)nc3cc(-c4cc(O)cc5ccccc45)ccc13)C2)C1CCNCC1 [P-0138, 2-((1R,5S)-3-(7-(3-hydroxynaphthalen-1-yl)-2-((tetrahydro-1H-pyrrolizin-7a(5H)-yl)methoxy)quinazolin-4-yl)-3,8-diazabicyclo[3.2.1]octan-8-yl)-1-(piperidin-4-yl)ethan-1-one]
[1]
  IC50: 0.0001 to 10 µM
[2]
  IC50: 0.0001 to 10 µM

## CN1CCC[C@H]1COc1nc(N2C[C@H]3CC[C@@H](C2)N3S(=O)(=O)N2CCOC2=O)c2ccc(-c3cc(O)cc4ccccc34)c(F)c2n1 [P-0377, 3-(((1R,5S)-3-(8-fluoro-7-(3-hydroxynaphthalen-1-yl)-2-(((S)-1-methylpyrrolidin-2-yl)methoxy)quinazolin-4-yl)-3,8-diazabicyclo[3.2.1]octan-8-yl)sulfonyl)oxazolidin-2-one]
[1]
  IC50: 0.0001 to 10 µM
[2]
  IC50: 0.0001 to 10 µM

## CN1CCC[C@H]1COc1nc(N2C[C@H]3CC[C@@H](C2)N3C(=O)Cn2ccnc2)c2ccc(-c3cc(O)cc4ccccc34)c(F)c2n1 [P-0401, 1-((1R,5S)-3-(8-fluoro-7-(3-hydroxynaphthalen-1-yl)-2-(((S)-1-methylpyrrolidin-2-yl)methoxy)quinazolin-4-yl)-3,8-diazabicyclo[3.2.1]octan-8-yl)-2-(1H-imidazol-1-yl)ethan-1-one]
[1]
  IC50: 0.0001 to 10 µM
[2]
  IC50: 0.0001 to 10 µM

## CN1CCC[C@H]1COc1nc(N2[C@@H]3CC[C@H]2CN(C(=O)C(O)CO)C3)c2ccc(-c3cc(O)cc4ccccc34)cc2n1 (stereo partly drawn) [P-0219, 2,3-dihydroxy-1-((1R,5S)-8-(7-(3-hydroxynaphthalen-1-yl)-2-(((S)-1-methylpyrrolidin-2-yl)methoxy)quinazolin-4-yl)-3,8-diazabicyclo[3.2.1]octan-3-yl)propan-1-one]
[1]
  IC50: 10 to 100 µM
[2]
  IC50: 10 to 100 µM

## CONC(=O)N1C[C@H]2CC[C@@H](C1)N2c1nc(OC[C@@H]2CCCN2C)nc2cc(-c3cc(O)cc4ccccc34)ccc12 [P-0214, (1R,5S)-8-(7-(3-hydroxynaphthalen-1-yl)-2-(((S)-1-methylpyrrolidin-2-yl)methoxy)quinazolin-4-yl)-N-methoxy-3,8-diazabicyclo[3.2.1]octane-3-carboxamide]
[1]
  IC50: 10 to 100 µM
[2]
  IC50: 10 to 100 µM

## CN1CCC[C@H]1COc1nc(N2C[C@H]3CC[C@@H](C2)N3)c2ccc(-n3nc(O)c4cccc(F)c43)c(F)c2n1 [P-0458, 1-(4-((1R,5S)-3,8-diazabicyclo[3.2.1]octan-3-yl)-8-fluoro-2-(((S)-1-methylpyrrolidin-2-yl)methoxy)quinazolin-7-yl)-7-fluoro-1H-indazol-3-ol]
[1]
  IC50: 10 to 100 µM
[2]
  IC50: 100 to 1000 µM

## Oc1cc(-c2ccc3c(N4CC5CCC(C4)N5)nc(OCC4CCC(O)C4)nc3c2F)c2ccccc2c1 [P-0622, 4-(4-((1R,5S)-3,8-diazabicyclo[3.2.1]octan-3-yl)-8-fluoro-2-((3-hydroxycyclopentyl)methoxy)quinazo-lin-7-yl)naphthalen-2-ol]
[1]
  IC50: 0.0001 to 10 µM
[2]
  IC50: 10 to 100 µM

## CN1CCC[C@H]1COc1nc(N2[C@@H]3CC[C@H]2CN(C(=O)CCCn2ccnc2)C3)c2ccc(-c3cc(O)cc4ccccc34)cc2n1 [P-0195, 1-((1R,5S)-8-(7-(3-hydroxynaphthalen-1-yl)-2-(((S)-1-methylpyrrolidin-2-yl)methoxy)quinazolin-4-yl)-3,8-diazabicyclo[3.2.1]octan-3-yl)-4-(1H-imidazol-1-yl)butan-1-one]
[1]
  IC50: 10 to 100 µM
[2]
  IC50: 10 to 100 µM

## CN1CCC[C@H]1COc1nc(N2C[C@H]3CC[C@@H](C2)N3)c2ccc(-c3cccc4ccccc34)cc2n1 [P-0337, 4-((1R,5S)-3,8-diazabicyclo[3.2.1]octan-3-yl)-2-(((S)-1-methylpyrrolidin-2-yl)methoxy)-7-(naphthalen-1-yl)quinazoline]
[1]
  IC50: 0.0001 to 10 µM
[2]
  IC50: 100 to 1000 µM

## CC(C)(C)c1ccc2[nH]cc(-c3ccc4c(N5C[C@H]6CC[C@@H](C5)N6)nc(OCC56CCCN5CCC6)nc4c3F)c2c1 [P-0611, 4-((1R,5S)-3,8-diazabicyclo[3.2.1]octan-3-yl)-7-(5-(tert-butyl)-1H-indol-3-yl)-8-fluoro-2-((tetrahydro-1H-pyrrolizin-7a(5H)-yl)methoxy)quinazoline]
[1]
  IC50: 10 to 100 µM
[2]
  IC50: 100 to 1000 µM

## Cc1ccc(N)cc1-c1ccc2c(N3C[C@H]4CC[C@@H](C3)N4)nc(OC[C@@H]3CCCN3C)nc2c1 [P-0152, 3-(4-((1R,5S)-3,8-diazabicyclo[3.2.1]octan-3-yl)-2-(((S)-1-methylpyrrolidin-2-yl)methoxy)quinazolin-7-yl)-4-methylaniline]
[1]
  IC50: 10 to 100 µM
[2]
  IC50: 10 to 100 µM

## CN1CCCC1COc1nc(N2C[C@H]3CC[C@@H](C2)N3C(=O)NCC(N)=O)c2ccc(-c3cc(O)cc4ccccc34)c(F)c2n1 (stereo partly drawn) [P-0423, (1R,5S)-N-(2-amino-2-oxoethyl)-3-(8-fluoro-7-(3-hydroxynaphthalen-1-yl)-2-((1-methylpyrrolidin-2-yl)methoxy)quinazolin-4-yl)-3,8-diazabicyclo[3.2.1]octane-8-carboxamide]
[1]
  IC50: 0.0001 to 10 µM
[2]
  IC50: 0.0001 to 10 µM
